This experiment concerns HL-60. The experiment is described as follows: Cytotoxicity against human HL60 cells after 72 hrs by MTS assay. In kind it is functional, cell-based. The conditions noted are these: HL-60, 72 h. Background: Formazan colour is commonly taken as a measure of viable cells.

Structures are written as SMILES.

One may read the IC50 as the concentration needed to halve the response being measured. Read a high IC50 as weaker potency.

Take `CC/C=C/[C@@H]1CC[C@]2(C[C@H]3CC[C@H]4[C@@H](C(=O)OC(CC)CCCCCCCCCCCCC[C@@H]5O[C@](O)(CCN)[C@H](O)N(CCCN)C5=O)[C@@]5(CCC[C@H](C)O5)NC(=[N+]34)N2)O1` (stereo partly specified) [MONANCHOCIDIN A]: the IC50 was found to be 0.54 µM. `CC[C@@H]1C=CCC[C@]2(C[C@H]3CC[C@H]4[C@@H](C(=O)OCCCCCCCCCCCCCC[C@@H]5O[C@](O)(CCN)[C@H](O)N(CCCN)C5=O)[C@@]5(CCC[C@H](C)O5)NC(=[N+]34)N2)O1` [MONANCHOCIDIN B] displayed an IC50 of 0.2 µM. This IC50 lies about 2.7-fold lower than the previous one. Then `CC[C@@H]1C=CCC[C@]2(C[C@H]3CC[C@H]4[C@@H](C(=O)OCCCCCCCCCCCCCCC[C@@H]5O[C@](O)(CCN)[C@H](O)N(CCCN)C5=O)[C@@]5(CCC[C@H](C)O5)NC(=[N+]34)N2)O1` [MONANCHOCIDIN C], with 0.11 µM; and `CC/C=C/[C@@H]1CC[C@]2(C[C@H]3CC[C@H]4[C@@H](C(=O)OC(CC)CCCCCCCCCCCC[C@@H]5O[C@](O)(CCN)[C@H](O)N(CCCN)C5=O)[C@@]5(CCC[C@H](C)O5)NC(=[N+]34)N2)O1` (stereo partly specified) [MONANCHOCIDIN E], with 0.65 µM. With `CC/C=C/[C@@H]1CC[C@]2(C[C@H]3CC[C@H]4[C@@H](C(=O)OCCCCCCCCCCCCCC[C@@H]5O[C@](O)(CCN)[C@H](O)N(CCCN)C5=O)[C@@]5(CCC[C@H](C)O5)NC(=[N+]34)N2)O1` [MONANCHOCIDIND], half-maximal inhibition (IC50) required 0.83 µM. In the case of `CC(=O)O[C@H]1C(=O)[C@@]2(C)[C@H]([C@H](OC(=O)c3ccccc3)[C@]3(O)C[C@H](OC(=O)[C@H](O)[C@@H](NC(=O)c4ccccc4)c4ccccc4)C(C)=C1C3(C)C)[C@]1(OC(C)=O)CO[C@@H]1C[C@@H]2O` [PACLITAXEL], half-maximal inhibition (IC50) required 0.0034 µM. This IC50 lies about 240-fold lower than the previous one.

These data come from ChEMBL document CHEMBL1821617, “Monanchocidins B-E: polycyclic guanidine alkaloids with potent antileukemic activities from the sponge Monanchora pulchra” (J Nat Prod, 2011).
